This passage reports GI50 and TGI results from PubChem BioAssay (NCI).

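The compound was tested at five concentrations on cells cultured in 96-well plates, with a 48-hour exposure period. Here, GI50 denotes the concentration required for 50% inhibition of growth. TGI is the concentration that stops growth completely.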 Bounds are passed on as bounds.

Among the test systems are NCI-H460 lung; HOP-92 NSCLC; SW-620 colon; SNB-19 CNS; SN12C renal; UACC-62 melanoma; RPMI-8226 leukemia; CCRF-CEM leukemia; K-562 leukemia; LOX IMVI melanoma.
Test in all cases: NCI anticancer screen, dose series, 48 h

As to `O=C1COCCN1c1ccc(NCc2cn(C(=O)c3ccc(Cl)cc3)c3ccccc23)cc1`, the GI50 in the test with NCI-H460 lung was 0.268 µM; in the test on HOP-92 NSCLC, 1.66 µM; with SW-620 colon, 2.23 µM; in the test on SNB-19 CNS, 20.8 µM; with SN12C renal it was 4.96 µM; with UACC-62 melanoma it was 0.396 µM. The GI50 with RPMI-8226 leukemia is 2.13 µM; with CCRF-CEM leukemia, 5.62 µM; in the test on K-562 leukemia, 1.84 µM; in the test with LOX IMVI melanoma it was 5.53 µM. In addition, the TGI with NCI-H460 lung was 12.7 µM; in the test on HOP-92 NSCLC, 15 µM; with SW-620 colon it was more than 100 µM; with SNB-19 CNS it was more than 100 µM; in the test with SN12C renal, 69.3 µM; in the test on UACC-62 melanoma, 3.37 µM. The TGI is 15.8 µM in the test on RPMI-8226 leukemia, more than 100 µM in the test on CCRF-CEM leukemia, 17 µM in the test on K-562 leukemia and 19.8 µM in the test with LOX IMVI melanoma.

Turning to `C=C(C)C(=O)O[C@H]1CC2=CC(CC(C)=C[C@H]3OC(=O)C(=C)C13)OC2=O` (stereo not given in full), the TGI in the test with NCI-H460 lung is more than 100 µM; with HOP-92 NSCLC it was 32.4 µM; with SW-620 colon it was 36 µM; in the test with SNB-19 CNS, more than 100 µM; in the test on SN12C renal, 51.4 µM; in the test with UACC-62 melanoma, 38.8 µM. For the same compound, the TGI was found to be 9.21 µM in the test on RPMI-8226 leukemia, 17.9 µM with CCRF-CEM leukemia, 22.5 µM in the test with K-562 leukemia and 53.7 µM in the test with LOX IMVI melanoma.

On to `NS(=O)(=O)c1ccc(NC(=O)c2cccc3c(Nc4ccc(S(N)(=O)=O)cc4)c4ccccc4nc23)cc1`, for which the TGI in the test with NCI-H460 lung, with HOP-92 NSCLC, in the test on SW-620 colon, with SNB-19 CNS, in the test on SN12C renal and with UACC-62 melanoma was more than 100 µM each time. Besides, the TGI in the test with RPMI-8226 leukemia is 39.1 µM; in the test on CCRF-CEM leukemia, 87.6 µM; in the test on K-562 leukemia, 82.1 µM; in the test with LOX IMVI melanoma, more than 100 µM.

Consider `O=C1c2ccn(CCCCN(CCO)CCO)c2C(=O)c2c1c(O)c1ccccc1c2O`, for which the GI50 in the test with NCI-H460 lung is 7.1 µM; with HOP-92 NSCLC it was 17.7 µM; in the test on SW-620 colon it was 3.12 µM; in the test with SNB-19 CNS, 20.2 µM; with SN12C renal, 6.85 µM; with UACC-62 melanoma it was 1.09 µM. Further, the GI50 is 5.62 µM with RPMI-8226 leukemia, 2.07 µM with CCRF-CEM leukemia, 4.41 µM in the test on K-562 leukemia and 1.04 µM in the test on LOX IMVI melanoma. The TGI with NCI-H460 lung is 26.1 µM; in the test on HOP-92 NSCLC it was 50.8 µM; in the test on SW-620 colon it was 14.7 µM; in the test on SNB-19 CNS, more than 100 µM; in the test on SN12C renal, 25 µM; with UACC-62 melanoma it was 2.77 µM. The TGI with RPMI-8226 leukemia was 14.8 µM; in the test on CCRF-CEM leukemia it was 11.2 µM; in the test with K-562 leukemia, more than 100 µM; in the test on LOX IMVI melanoma it was 3.64 µM.

Regarding `CN(CCCN(C)CCC1CCCCC1)CCC1CCCCC1`, the GI50 was 2.65 µM in the test on NCI-H460 lung; 0.687 µM with HOP-92 NSCLC; 2.28 µM with SW-620 colon; 3.76 µM in the test on SNB-19 CNS; 6.49 µM in the test with SN12C renal; 0.888 µM in the test on UACC-62 melanoma. The GI50 was 1.47 µM in the test on RPMI-8226 leukemia, 3.03 µM in the test with CCRF-CEM leukemia, 1.97 µM with K-562 leukemia and 1.61 µM in the test on LOX IMVI melanoma. Also, the TGI with NCI-H460 lung is 6.7 µM; with HOP-92 NSCLC, 5.72 µM; with SW-620 colon, 6.84 µM; with SNB-19 CNS, 9.98 µM; in the test with SN12C renal it was 20.6 µM; in the test on UACC-62 melanoma it was 2.39 µM. Further, the TGI is 5.09 µM in the test on RPMI-8226 leukemia, 21.7 µM in the test with CCRF-CEM leukemia, 7.02 µM in the test with K-562 leukemia and 3.55 µM with LOX IMVI melanoma.

As for `Clc1ccc(/C=C/c2nc(Cl)c(-c3ccc(Cl)cc3)c(Cl)n2)cc1`, the TGI in the test with NCI-H460 lung, in the test with HOP-92 NSCLC, with SW-620 colon, in the test on SNB-19 CNS, in the test with SN12C renal and in the test with UACC-62 melanoma was more than 100 µM each time. Also, the TGI with RPMI-8226 leukemia was more than 100 µM; in the test with CCRF-CEM leukemia, 84.8 µM; with K-562 leukemia, more than 100 µM; in the test with LOX IMVI melanoma, more than 100 µM.

Regarding `COc1cc2c(Cc3cc(OCc4ccccc4)ccc3N)nccc2c(OC)c1OC`, the TGI with NCI-H460 lung, in the test with HOP-92 NSCLC, in the test on SW-620 colon, with SNB-19 CNS, in the test with SN12C renal and in the test on UACC-62 melanoma was more than 10 µM in each case. Moreover, the TGI in the test on RPMI-8226 leukemia, in the test with CCRF-CEM leukemia, in the test on K-562 leukemia and in the test on LOX IMVI melanoma was more than 10 µM in each case.

In the case of `Cc1c(C(N)=O)sc2c1c(=O)n(Cc1ccccc1)c1nnc(S(=O)(=O)CC(=O)Nc3ccc(Cl)cc3)n21`, the GI50 in the test with NCI-H460 lung is 2.87 µM; in the test on HOP-92 NSCLC it was 2.26 µM; in the test on SW-620 colon, 4.87 µM; in the test with SNB-19 CNS, 7.7 µM; with SN12C renal, 4.67 µM; in the test with UACC-62 melanoma it was 4.21 µM. The GI50 with RPMI-8226 leukemia was 39.1 µM; in the test with CCRF-CEM leukemia, 10.9 µM; in the test on K-562 leukemia it was 15 µM; in the test on LOX IMVI melanoma it was 6.15 µM. Further, the TGI worked out at 7.64 µM in the test on NCI-H460 lung; 6.63 µM with HOP-92 NSCLC; 20.4 µM in the test on SW-620 colon; 23.3 µM with SNB-19 CNS; 28.2 µM in the test on SN12C renal; 18.7 µM in the test on UACC-62 melanoma. Moreover, the TGI in the test with RPMI-8226 leukemia is more than 100 µM; in the test with CCRF-CEM leukemia, 43.1 µM; with K-562 leukemia, 55.2 µM; in the test with LOX IMVI melanoma, 20.6 µM.

On to `COC(=O)C1=C(c2ccc(Cl)cc2)C(O)N=C(NN)N1` (stereo not given), for which the TGI in the test with NCI-H460 lung, with HOP-92 NSCLC, in the test on SW-620 colon, in the test on SNB-19 CNS, with SN12C renal and with UACC-62 melanoma was more than 100 µM each time. Besides, the TGI in the test on RPMI-8226 leukemia, in the test with CCRF-CEM leukemia, with K-562 leukemia and with LOX IMVI melanoma was more than 100 µM throughout.

Take `CN(C)c1ncnc2c1ccn2C1OC(CO)C(O)C1O` (stereo not given): the GI50 in the test with NCI-H460 lung was 4.19 µM; in the test on HOP-92 NSCLC, 0.883 µM; in the test on SW-620 colon, 2.55 µM; in the test on SNB-19 CNS, 44.5 µM; in the test on SN12C renal, 2.62 µM; in the test on UACC-62 melanoma it was more than 100 µM. In addition, the GI50 in the test on RPMI-8226 leukemia was 5.88 µM; in the test with CCRF-CEM leukemia, 0.234 µM; with K-562 leukemia, 1.4 µM; with LOX IMVI melanoma it was 0.559 µM. Besides, the TGI in the test with NCI-H460 lung is more than 100 µM; in the test with HOP-92 NSCLC it was 5.64 µM; with SW-620 colon, more than 100 µM; in the test on SNB-19 CNS, more than 100 µM; in the test on SN12C renal, more than 100 µM; in the test with UACC-62 melanoma it was more than 100 µM. In addition, the TGI was more than 71.4 µM in the test with RPMI-8226 leukemia, 1.76 µM with CCRF-CEM leukemia, more than 100 µM with K-562 leukemia and 12.2 µM in the test with LOX IMVI melanoma.

`COC(=O)Nc1nc2ccc(S(=O)(=O)c3ccc(NC(=O)Nc4cc(C(F)(F)F)ccc4F)cc3)cc2[nH]1`: the GI50 in the test on NCI-H460 lung, with HOP-92 NSCLC, in the test on SW-620 colon, with SNB-19 CNS, with SN12C renal and in the test with UACC-62 melanoma was more than 25 µM each time. The GI50 in the test with RPMI-8226 leukemia, in the test on CCRF-CEM leukemia, with K-562 leukemia and in the test with LOX IMVI melanoma was more than 25 µM in each case. The TGI with NCI-H460 lung, in the test with HOP-92 NSCLC, in the test on SW-620 colon, in the test with SNB-19 CNS, in the test with SN12C renal and in the test on UACC-62 melanoma was more than 25 µM throughout. The TGI in the test with RPMI-8226 leukemia, with CCRF-CEM leukemia, in the test with K-562 leukemia and in the test on LOX IMVI melanoma was more than 25 µM in each case.

As to `CN(C)CC1=Nc2cccc3cccc(c23)N1`, the TGI is more than 100 µM in the test with NCI-H460 lung; 33.1 µM in the test on HOP-92 NSCLC; more than 100 µM in the test with SW-620 colon; more than 100 µM in the test with SNB-19 CNS; 31.8 µM in the test with SN12C renal; 29.6 µM with UACC-62 melanoma. The TGI was 55.8 µM in the test with RPMI-8226 leukemia, more than 100 µM in the test on CCRF-CEM leukemia, 62.3 µM in the test on K-562 leukemia and 37.3 µM with LOX IMVI melanoma.

Consider `CC(C)=CCc1cc(C2COc3cc4c(c(O)c3C2=O)C=CC(C)(C)O4)c(O)cc1O` (stereo not given), for which the TGI in the test on NCI-H460 lung turned out to be 27.4 µM; with HOP-92 NSCLC, 33.1 µM; in the test with SW-620 colon, 57.3 µM; with SNB-19 CNS it was 40.7 µM; with SN12C renal, 26.3 µM; in the test on UACC-62 melanoma, 32.9 µM. The TGI with RPMI-8226 leukemia was found to be 24.4 µM; in the test with CCRF-CEM leukemia it was 28.7 µM; with K-562 leukemia, 10.7 µM; in the test with LOX IMVI melanoma, 43.4 µM.
